From patent US4396598A, “Triiodoisophthalamide X-ray contrast agent” (Mallinckrodt, Inc., priority 1982, dated 1983)

How the values were obtained:
Sprague Dawley rats = experiment: Acute Intracisternal Toxicity in Rats; format: in vivo; details: concentration 450, two day observation, 95% confidence limits 874-1,385
Protocol: (§1) The following pharmacological studies were conducted on N,N'-bis(2,3-dihydroxypropyl)-5-N-(2-hydroxyethyl)glycolamido-2,4,6-triiodoisophthalamide (PRODUCT), prepared by the method of Example 1.
(§2) The technique described by Melartin, et al. (Invest. Radiol. 5: 13-21, 1970) was utilized to evaluate lethal effects of a solution of the PRODUCT after injection into cerebrospinal fluid at the cisterna magna. Young adult male Sprague Dawley rats were used. After dosing, the animals were housed individually and observed for immediate reactions and periodically for a two day observation period. The LD50 value was calculated by the method of Litchfield and Wilcoxin (J. Pharmacol. Exp. Therap. 96: 99-113, 1949) with the following results: […]

[1] = Acute Intracisternal Toxicity in Rats; format: in vivo, Sprague Dawley rats; details: rat, in vivo, concentration 450, two day observation, 95% confidence limits 1,853-2,936
Protocol: as §1, §2

[2] = Radiographic observations, whole body radiographs in mouse after intravenous administration; format: in vivo; details: male mouse, i.v. (lateral tail vein), 10,000 mg I/kg (40% I solution), immediately and 5 minutes after administration
Protocol: A male mouse (23 g) was anesthetized with sodium pentobarbital (40 mg/kg, i.p.; Nembutal®, Abbott Laboratories). The N,N'-bis(2,3-dihydroxypropyl)-5-N-(2-hydroxyethyl)glycolamido-2,4,6-triiodoisophthalamide prepared by method of Example 1, was administered at a dose of 10,000 mg I/kg (40% I solution) via a lateral tail vein of the mouse at a rate of 1 ml/minute.

Swiss mice = experiment: Acute Intravenous Toxicity in Mice; format: in vivo; details: i.v., 40% I, seven day observation
Protocol: as §1
A solution of the PRODUCT (40% I) was injected into the lateral tail vein of young adult male and female Swiss mice at a rate of 1 ml/min. […]

[3] = Radiographic observations, lateral radiograph of head and thorax in rat after intracisternal injection; format: in vivo; details: male rat, 137 mg I/kg (40% I solution), immediately after administration

In the case of `O=C(NCC(O)CO)c1c(I)c(C(=O)NCC(O)CO)c(I)c(N(CCO)C(=O)CO)c1I` (centres unmarked) [PRODUCT, N,N'-Bis(2,3-dihydroxypropyl)-5-N-(2-hydroxyethyl)glycolamido-2,4,6-triiodoisophthalamide], the “LD50 (95% Confidence Limits)” value (Sprague Dawley rats) is reported as 1,100 mg I/kg, the LD50 at 48 h [1] is reported as 2330 mg/kg and the “opacification on whole body radiographs” value [2] is reported as “opacification of the liver and cardiovascular and renal excretory systems”. For the same compound, the “NUMBER OF MORTALITIES/NUMBER DOSED” value (Swiss mice; 18,500 mg I/kg (39,220 mg/kg)) was 0/8, the “NUMBER OF MORTALITIES/NUMBER DOSED” value (Swiss mice; 20,000 mg I/kg (42,400 mg/kg)) was 5/8 and the “NUMBER OF MORTALITIES/NUMBER DOSED” value (Swiss mice; 21,500 mg I/kg (45,580 mg/kg)) was 10/10. The LD50 (Swiss mice; mice) was “about 20,000 mg I/kg” and the “visualization on lateral radiograph of the head and thorax” value [3] was “good visualization of the cisterna magna, basal cisterns, and cervical subarachnoid space”.
